# In patent US20240252456A1, “ORAL COMPOSITION, SKIN COSMETIC AND HAIR COSMETIC” (MARUZEN PHARMACEUTICALS CO., LTD., priority 2021, published 2024):
# Assays:
# [1] = biological target: T1, DPP IV (rhCD26) (Homo sapiens, UniProt P27487); test: DPP IV activity inhibitory action test; type: biochemical; conditions: read-out: DPP IV activity inhibition rate; for inhibition at 2500 µM: 2500 μmol/L; for inhibition at 10000 µM: 10000 μmol/L
# T1 construct: purchased R&D Systems
# Protocol: In a 96-well plate, 25 μL of each of test samples (Samples 1 to 3, see Table 3 below for final concentrations) prepared with 25 mM Tris-HCl buffer solution (pH 8.0) and 25 μL of 0.4 μg/mL DPP IV (available from R&D Systems, rhCD26) solution prepared with the above buffer solution were mixed and preincubated at 37° C. for 5 minutes. After that, 50 μL of 0.5 mM Gly-Pro-p-NA-Tos (available from PEPTIDE […], INC.) prepared with the above buffer solution was added, and the mixture was reacted at 37° C. for 90 minutes. After the reaction was completed, the absorbance at a wavelength of 415 nm was measured. From the obtained results, the DPP IV activity inhibition rate (%) was calculated using the following equation.
# Terms in the equation represent the following respective ones. • A: Absorbance at wavelength 415 nm without sample addition and with enzyme addition • B: Absorbance at wavelength 415 nm without sample addition and without enzyme addition • C: Absorbance at wavelength 415 nm with test sample addition and with enzyme addition • D: Absorbance at wavelength 415 nm with test sample addition and without enzyme addition
# [2] = test system: Normal human dermal fibroblasts (NB1RGB); test: Glutathione production promotive action test (dermal fibroblasts); type: cell-based; conditions: 24 hours
# Protocol: Normal human dermal fibroblasts (NB1RGB) were cultured using α-modified Eagle's minimum essential medium (α-MEM) containing 10% FBS, and then the cells were collected by a trypsin treatment. The collected cells were diluted with α-MEM containing 10% FBS to a cell density of 2.0×10^5 cells/mL, then seeded with 200 μL per well in a 48-well plate, and cultured for 48 hours.
# After culturing, the medium was removed, 200 μL of each of test samples (Samples 1 to 3, see Table 14 below for final concentrations) dissolved in Dulbecco's modified Eagle's medium (DMEM) containing 1% FBS was added to each well, and culturing was further performed for 24 hours. As a control, culturing was performed in the same manner using DMEM containing 1% FBS to which no test sample was added. After the culturing was completed, the medium was removed from each well, and the cells were washed with 400 μL of PBS(−) buffer solution and then lysed using 150 μL of M-PER (available from PIERCE).
# Quantitative determination of total glutathione was performed using 100 μL of the lysed cells. That is, 100 μL of lysed cell extract, 50 μL of 0.1 mol/L phosphate buffer solution, 25 μL of 2 mmol/L NADPH, and 25 μL of 3.2 unit/mL glutathione reductase were added to a 96-well plate and heated at 37° C. for 10 minutes, then 25 μL of 10 mmol/L 5,5′-dithiobis(2-nitrobenzoic acid) was added, and the absorbance at a wavelength of 412 nm was measured until 5 minutes later to determine ΔOD/min. The total glutathione concentration was calculated based on a calibration curve created using oxidized glutathione (available from FUJIFILM Wako Pure Chemical Corporation). After correcting the obtained value to the glutathione value per total protein amount, the glutathione production promotion rate (%) was calculated using the following equation.
# Terms in the equation represent the following respective ones. • A: Glutathione amount per total protein amount without sample addition • B: Glutathione amount per total protein amount with test sample addition
# [3] = biological target: T2, testosterone 5α-reductase (S-9, rat liver homogenate) (Rattus norvegicus, UniProt P24008); test: Testosterone 5α-reductase inhibitory action test; type: biochemical; conditions: rat liver S-9, read-out: Testosterone 5 α-reductase inhibition rate; for inhibition at 2000 µM: 2000 μmol/L; for inhibition at 8000 µM: 8000 μmol/L
# T2 construct: tissue Oriental Yeast Co., Ltd. S-9; host or cells: rat liver homogenate (S-9 fraction)
# T2 sequence (P24008 1-259): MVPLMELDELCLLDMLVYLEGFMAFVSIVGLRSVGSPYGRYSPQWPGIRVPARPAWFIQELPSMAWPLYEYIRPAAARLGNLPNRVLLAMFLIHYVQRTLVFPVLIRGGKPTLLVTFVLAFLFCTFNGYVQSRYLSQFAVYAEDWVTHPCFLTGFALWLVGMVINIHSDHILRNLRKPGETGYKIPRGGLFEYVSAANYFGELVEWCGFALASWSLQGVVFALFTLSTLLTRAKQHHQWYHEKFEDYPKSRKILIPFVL
# Protocol: In a V-bottom test tube with a lid, 20 μL of a 4.2 mg/mL testosterone (available from FUJIFILM Wako Pure Chemical Corporation) solution prepared with propylene glycol and 825 μL of 5 mmol/L Tris-HCl (pH 7.13) buffer solution containing 1 mg/mL NADPH were mixed.
# Furthermore, 80 μL of each of test sample solutions (Samples 1 to 3, see Table 24 below for final concentrations) prepared with 80% ethanol and 75 μL of S-9 (available from Oriental Yeast Co., Ltd., rat liver homogenate) were added, mixed, and incubated at 37° C. for 60 minutes. After that, 1 mL of methylene chloride was added to stop the reaction. This was centrifuged (1600×g, 10 minutes), the methylene chloride layer was separated, and the separated methylene chloride layer was subjected to gas chromatography analysis under the following conditions to determine the concentrations of 3α-androstanediol, 5α-dihydrotestosterone (5α-DHT), and testosterone. As a control, the same process was performed using the same amount (80 μL) of the sample solvent in place of the test sample solution, and the control was subjected to gas chromatography analysis.
# • Device used: Shimadzu GC-2010 (available from Shimadzu Corporation) • Column: DB-1701 (inner diameter: 0.53 mm, length: 30 m, film thickness: 1.0 μm) (available from J&W Scientific) • Column temperature: 240° C. • Inlet temperature: 300° C. • Detector: FID • Sample injection amount: 1 μL • Split ratio: 1:2 • Carrier gas: Nitrogen gas • Carrier gas flow rate: 12 mL/min
# Quantitative determination of the concentrations of 3α-androstanediol, 5α-DHT, and testosterone was performed by the following method.
# Standard products of 3α-androstanediol, 5α-DHT, and testosterone were each dissolved in ethanol, and the solutions were subjected to gas chromatography analysis. From the concentrations (μg/mL) and peak areas of these compounds, the correspondence relationship between the peak area and the concentration of each compound was preliminarily obtained. Then, the concentration per peak area of each of 3α-androstanediol, 5α-DHT, and testosterone after the reaction between testosterone and S-9 was obtained based on the following equation (1) using the correspondence relationship which was preliminarily obtained.
# Terms in the equation represent the following respective ones. • A: Concentration of 3α-androstanediol, 5α-DHT, or testosterone • B: Peak area of 3α-androstanediol, 5α-DHT, or testosterone • C: Concentration of standard product • D: Peak area of standard product
# Using the compound concentration calculated based on the equation (1), the conversion ratio (concentration ratio between the concentration of 3α-androstanediol and 5α-DHT produced by reduction of testosterone due to testosterone 5α-reductase and the initial concentration of testosterone) was calculated based on the following equation (2).
# Terms in the equation represent the following respective ones. • E: Concentration of 3α-androstanediol (μg/mL) • F: Concentration of 5α-DHT (μg/mL) • G: Concentration of testosterone (μg/mL)
# Using the conversion ratio calculated based on the equation (2), the testosterone 5α-reductase inhibition rate (%) was calculated based on the following equation (3).
# Terms in the equation represent the following respective ones. • H: Conversion ratio with test sample addition • I: Conversion ratio without sample addition
# T1 sequence (P27487 whole entry): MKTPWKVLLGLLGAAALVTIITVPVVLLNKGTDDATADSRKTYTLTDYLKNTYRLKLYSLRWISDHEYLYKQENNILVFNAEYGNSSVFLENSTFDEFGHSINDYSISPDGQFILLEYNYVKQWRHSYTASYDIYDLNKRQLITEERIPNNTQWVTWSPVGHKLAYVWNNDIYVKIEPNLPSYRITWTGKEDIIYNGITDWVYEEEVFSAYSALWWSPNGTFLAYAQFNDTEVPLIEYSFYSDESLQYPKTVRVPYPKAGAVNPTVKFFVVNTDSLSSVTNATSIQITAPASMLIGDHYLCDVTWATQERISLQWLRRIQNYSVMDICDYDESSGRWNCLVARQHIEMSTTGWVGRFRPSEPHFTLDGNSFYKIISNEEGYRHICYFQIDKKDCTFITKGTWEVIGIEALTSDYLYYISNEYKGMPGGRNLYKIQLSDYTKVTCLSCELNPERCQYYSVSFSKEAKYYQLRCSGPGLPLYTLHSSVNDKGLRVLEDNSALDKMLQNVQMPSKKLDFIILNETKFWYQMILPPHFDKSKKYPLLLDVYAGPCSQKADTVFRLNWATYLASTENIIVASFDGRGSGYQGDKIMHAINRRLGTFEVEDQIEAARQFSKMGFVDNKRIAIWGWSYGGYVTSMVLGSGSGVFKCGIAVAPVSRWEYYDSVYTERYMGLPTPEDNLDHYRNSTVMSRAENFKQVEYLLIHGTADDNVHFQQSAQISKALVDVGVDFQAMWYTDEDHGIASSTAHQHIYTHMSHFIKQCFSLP
SMILES,inhibition at 625 µM ([1]; 625 μmol/L) [%],inhibition at 2500 µM [1] [%],inhibition at 10000 µM [1] [%],Glutathione production promotion rate ([2]; 62.5 μmol/L) [%],inhibition at 2000 µM [3] [%],inhibition at 8000 µM [3] [%],Glutathione production promotion rate ([2]; 1000 μmol/L) [%]
"O=C(O)CCc1ccc(O)c(O)c1 [Sample 1, 3,4-Dihydroxyhydrocinnamic acid]",7.2,17.6,97.1,125.8,34.3,100,–
"O=C(O)CCc1ccc(O)cc1 [Sample 2, 3-(4-Hydroxyphenyl)propionic acid]",–,–,96.9,–,71,100,131.7
"O=C(O)CCc1ccccc1 [Sample 3, 3-phenylpropionic acid]",–,4.1,99.8,–,76.4,100,129.9
